# Reference: patent US12065436B2, “Cardiac sarcomere inhibitors” (Cytokinetics, Inc., priority 2018, dated 2024)
# Target: bovine cardiac myofibrils (full-length cardiac myosin ATPase in the native sarcomere) (Bos taurus (Bovine), UniProt Q9BE39)
# Assay: Skinned bovine cardiac myofibril ATPase assay (PK/LDH-coupled)
# Format: biochemical
# Details: Ca2+ activating to 75% of maximal rate; for CDMF75 IC15: concentration giving 15% inhibition; for IC50: read-out: CDMF75 IC50
# Summary of the method: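 Inhibition of steady-state ATPase read at 340 nm through a PK/LDH-coupled NADH system (0.5 mM NADH, 1.5 mM PEP). Detergent-skinned bovine cardiac myofibrils, 1 mg/mL, were tested at pH 6.8 in PIPES/MgCl2 with 50 μM ATP and calcium adjusted to give pCa50 or pCa75 activation.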
# Chain of bovine cardiac myofibrils (full-length cardiac myosin ATPase in the native sarcomere) (Q9BE39 whole entry): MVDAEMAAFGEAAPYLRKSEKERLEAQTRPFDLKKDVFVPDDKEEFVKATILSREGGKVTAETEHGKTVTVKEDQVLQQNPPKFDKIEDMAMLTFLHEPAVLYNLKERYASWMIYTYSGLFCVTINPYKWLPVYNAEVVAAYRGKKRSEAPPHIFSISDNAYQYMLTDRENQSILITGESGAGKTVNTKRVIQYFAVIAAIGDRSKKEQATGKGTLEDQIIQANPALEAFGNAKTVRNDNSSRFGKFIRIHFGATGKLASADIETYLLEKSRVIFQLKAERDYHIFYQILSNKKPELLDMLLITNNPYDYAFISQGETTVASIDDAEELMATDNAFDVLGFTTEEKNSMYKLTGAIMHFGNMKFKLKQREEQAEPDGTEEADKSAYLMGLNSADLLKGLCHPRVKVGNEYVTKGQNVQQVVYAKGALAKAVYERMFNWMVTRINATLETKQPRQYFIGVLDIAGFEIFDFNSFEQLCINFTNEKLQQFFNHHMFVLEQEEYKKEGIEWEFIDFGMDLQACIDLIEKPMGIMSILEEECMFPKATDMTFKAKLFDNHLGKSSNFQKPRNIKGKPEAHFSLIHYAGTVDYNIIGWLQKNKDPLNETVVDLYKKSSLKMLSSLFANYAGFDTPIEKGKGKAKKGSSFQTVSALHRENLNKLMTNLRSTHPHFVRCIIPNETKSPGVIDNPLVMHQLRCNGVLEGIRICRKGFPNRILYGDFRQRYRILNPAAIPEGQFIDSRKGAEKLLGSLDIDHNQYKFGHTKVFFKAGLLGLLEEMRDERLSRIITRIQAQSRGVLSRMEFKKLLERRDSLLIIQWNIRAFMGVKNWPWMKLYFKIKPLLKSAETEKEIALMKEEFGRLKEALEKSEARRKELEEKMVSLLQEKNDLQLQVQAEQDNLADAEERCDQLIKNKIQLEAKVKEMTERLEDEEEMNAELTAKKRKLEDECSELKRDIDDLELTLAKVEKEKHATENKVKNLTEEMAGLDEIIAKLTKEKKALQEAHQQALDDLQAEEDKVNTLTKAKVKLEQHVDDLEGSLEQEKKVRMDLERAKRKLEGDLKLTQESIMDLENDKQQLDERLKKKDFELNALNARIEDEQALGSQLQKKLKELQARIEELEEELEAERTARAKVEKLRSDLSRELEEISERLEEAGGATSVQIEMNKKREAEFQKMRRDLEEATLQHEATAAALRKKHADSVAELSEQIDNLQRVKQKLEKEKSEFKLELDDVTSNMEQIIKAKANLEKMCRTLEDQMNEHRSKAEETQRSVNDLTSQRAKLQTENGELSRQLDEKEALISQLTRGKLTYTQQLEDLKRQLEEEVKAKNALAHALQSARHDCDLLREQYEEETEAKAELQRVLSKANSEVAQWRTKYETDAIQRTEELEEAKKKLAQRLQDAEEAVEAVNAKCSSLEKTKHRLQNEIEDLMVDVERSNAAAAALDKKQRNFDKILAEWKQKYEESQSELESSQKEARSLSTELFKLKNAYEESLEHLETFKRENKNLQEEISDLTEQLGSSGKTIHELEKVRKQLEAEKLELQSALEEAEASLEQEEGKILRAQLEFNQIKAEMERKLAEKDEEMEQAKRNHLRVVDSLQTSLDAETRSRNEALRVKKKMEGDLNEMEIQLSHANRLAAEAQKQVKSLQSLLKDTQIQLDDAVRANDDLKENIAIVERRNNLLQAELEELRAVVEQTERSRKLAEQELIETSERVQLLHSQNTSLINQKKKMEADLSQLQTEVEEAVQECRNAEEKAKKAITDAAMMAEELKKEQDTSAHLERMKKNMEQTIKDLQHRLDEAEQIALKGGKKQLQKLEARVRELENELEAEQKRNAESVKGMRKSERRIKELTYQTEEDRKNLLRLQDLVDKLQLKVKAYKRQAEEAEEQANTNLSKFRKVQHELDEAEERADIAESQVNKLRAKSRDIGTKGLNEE
# Chain of bovine cardiac myofibrils (full-length cardiac myosin ATPase in the native sarcomere) (P85100 whole entry partner): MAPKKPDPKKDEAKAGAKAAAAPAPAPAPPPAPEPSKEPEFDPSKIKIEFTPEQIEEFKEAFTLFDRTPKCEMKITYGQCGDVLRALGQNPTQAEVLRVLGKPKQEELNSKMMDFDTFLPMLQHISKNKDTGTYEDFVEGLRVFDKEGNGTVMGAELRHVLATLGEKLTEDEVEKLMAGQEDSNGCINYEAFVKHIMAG
# Chain of bovine cardiac myofibrils (full-length cardiac myosin ATPase in the native sarcomere) (Q3SZE5 whole entry partner): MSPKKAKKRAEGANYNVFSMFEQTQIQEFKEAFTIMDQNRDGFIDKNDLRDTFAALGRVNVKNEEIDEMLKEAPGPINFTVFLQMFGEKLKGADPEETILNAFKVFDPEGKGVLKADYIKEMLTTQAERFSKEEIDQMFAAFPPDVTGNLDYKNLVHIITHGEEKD
CDMF75 IC15 [µM],IC50 [µM],SMILES
2.3,9.5,"CCc1nc(-c2ccc3c(c2)CC[C@H]3NC(=O)OCC(C)(C)OC)no1 [Compound 359, 2-methoxy-2-methylpropyl (R)-(5-(5-ethyl-1,2,4-oxadiazol-3-yl)-2,3-dihydro-1H-inden-1-yl)carbamate]"
21.6,> 39.2,"CCc1nc(-c2ccc3c(c2)CC[C@H]3NC(=O)OCC2CN(C(C)=O)C2)no1 [Compound 360, (1-acetylazetidin-3-yl)methyl (R)-(5-(5-ethyl-1,2,4-oxadiazol-3-yl)-2,3-dihydro-1H-inden-1-yl)carbamate]"
1.9,6.6,"CCc1nc(-c2ccc3c(c2)CC[C@H]3NC(=O)OCC2CN(C(N)=O)C2)no1 [Compound 362, (1-carbamoylazetidin-3-yl)methyl (R)-(5-(5-ethyl-1,2,4-oxadiazol-3-yl)-2,3-dihydro-1H-inden-1-yl)carbamate]"
1.6,6.8,"Cc1cc(-c2ccc3c(c2)OC[C@H]3NC(=O)c2nnn(C)n2)no1 [Compound 364, (S)-2-methyl-N-(6-(5-methylisoxazol-3-yl)-2,3-dihydrobenzofuran-3-yl)-2H-tetrazole-5-carboxamide]"
8.6,> 39.2,"Cn1nccc1C(=O)N[C@@H]1CCc2cc(-c3ncccn3)ccc21 [Compound 366, (R)-1-methyl-N-(5-(pyrimidin-2-yl)-2,3-dihydro-1H-inden-1-yl)-1H-pyrazole-5-carboxamide]"
13.9,> 39.2,"Cn1nccc1C(=O)N[C@@H]1CCc2cc(-c3ccccn3)ccc21 [Compound 367, (R)-1-methyl-N-(5-(pyridin-2-yl)-2,3-dihydro-1H-inden-1-yl)-1H-pyrazole-5-carboxamide]"
17.6,> 39.2,"Cn1nccc1C(=O)N[C@@H]1CCc2cc(-c3cnccn3)ccc21 [Compound 368, (R)-1-methyl-N-(5-(pyrazin-2-yl)-2,3-dihydro-1H-inden-1-yl)-1H-pyrazole-5-carboxamide]"
39.2,> 39.2,"Cn1nccc1C(=O)N[C@@H]1CCc2cc(-c3ccnnc3)ccc21 [Compound 369, (R)-1-methyl-N-(5-(pyridazin-4-yl)-2,3-dihydro-1H-inden-1-yl)-1H-pyrazole-5-carboxamide]"
0.7,2.9,"Cc1cnc(-c2ccc3c(c2)CC[C@H]3NC(=O)c2ccnn2C)s1 [Compound 371, (R)-1-methyl-N-(5-(5-methylthiazol-2-yl)-2,3-dihydro-1H-inden-1-yl)-1H-pyrazole-5-carboxamide]"
3.5,15.7,"Cn1nccc1C(=O)N[C@@H]1CCc2cc(-c3ccccc3)ccc21 [Compound 372, (R)-1-methyl-N-(5-phenyl-2,3-dihydro-1H-inden-1-yl)-1H-pyrazole-5-carboxamide]"
10.6,> 39.2,"Cc1ccc(-c2ccc3c(c2)CC[C@H]3NC(=O)c2ccnn2C)cn1 [Compound 375, (R)-1-methyl-N-(5-(6-methylpyridin-3-yl)-2,3-dihydro-1H-inden-1-yl)-1H-pyrazole-5-carboxamide]"
2.1,12.2,"Cc1ccnc(-c2ccc3c(c2)CC[C@H]3NC(=O)c2ccnn2C)n1 [Compound 378, (R)-1-methyl-N-(5-(4-methylpyrimidin-2-yl)-2,3-dihydro-1H-inden-1-yl)-1H-pyrazole-5-carboxamide]"
39.2,> 39.2,"Cc1nccc(-c2ccc3c(c2)CC[C@H]3NC(=O)c2ccnn2C)n1 [Compound 379, (R)-1-methyl-N-(5-(2-methylpyrimidin-4-yl)-2,3-dihydro-1H-inden-1-yl)-1H-pyrazole-5-carboxamide]"
39.2,> 39.2,"Cc1cc(-c2ccc3c(c2)CC[C@H]3NC(=O)c2ccnn2C)ncn1 [Compound 381, (R)-1-methyl-N-(5-(6-methylpyrimidin-4-yl)-2,3-dihydro-1H-inden-1-yl)-1H-pyrazole-5-carboxamide]"
3.4,11.6,"Cc1cnnc(-c2ccc3c(c2)CC[C@H]3NC(=O)c2ccnn2C)c1 [Compound 383, (R)-1-methyl-N-(5-(5-methylpyridazin-3-yl)-2,3-dihydro-1H-inden-1-yl)-1H-pyrazole-5-carboxamide]"
0.5,1.7,"CCc1nc(-c2ccc3c(c2)CC[C@H]3NC(=O)c2cnc(C)o2)no1 [Compound 385, (R)-N-(5-(5-ethyl-1,2,4-oxadiazol-3-yl)-2,3-dihydro-1H-inden-1-yl)-2-methyloxazole-5-carboxamide]"
0.6,1.9,"Cc1cc(C(=O)N[C@@H]2CCc3cc(-c4noc(C5CC5)n4)ccc32)ccn1 [Compound 389, (R)-N-(5-(5-cyclopropyl-1,2,4-oxadiazol-3-yl)-2,3-dihydro-1H-inden-1-yl)-2-methylisonicotinamide]"
1.3,4.6,"Cc1ncc(C(=O)N[C@@H]2CCc3cc(-c4noc(C(C)C)n4)ccc32)o1 [Compound 391, (R)-N-(5-(5-isopropyl-1,2,4-oxadiazol-3-yl)-2,3-dihydro-1H-inden-1-yl)-2-methyloxazole-5-carboxamide]"
0.9,2.7,"Cc1cc(C(=O)N[C@@H]2CCc3cc(-c4noc(C(C)C)n4)ccc32)ccn1 [Compound 392, (R)-N-(5-(5-isopropyl-1,2,4-oxadiazol-3-yl)-2,3-dihydro-1H-inden-1-yl)-2-methylisonicotinamide]"
1.2,4.1,"CC(C)c1nc(-c2ccc3c(c2)CC[C@H]3NC(=O)c2cnn(C)c2)no1 [Compound 394, (R)-N-(5-(5-isopropyl-1,2,4-oxadiazol-3-yl)-2,3-dihydro-1H-inden-1-yl)-1-methyl-1H-pyrazole-4-carboxamide]"

# The next lines start with the molecule.
SMILES,CDMF75 IC15 [µM],IC50 [µM]
"CCc1nc(-c2ccc3c(c2)CC[C@H]3NC(=O)OCC2CN(C(=O)OC)C2)no1 [Compound 361, methyl (R)-3-((((5-(5-ethyl-1,2,4-oxadiazol-3-yl)-2,3-dihydro-1H-inden-1-yl)carbamoyl)oxy)methyl)azetidine-1-carboxylate]",23.7,> 39.2
"CCc1nc(-c2ccc3c(c2)CC[C@H]3NC(=O)OCC2CN(C(=O)NC)C2)no1 [Compound 363, (1-(methylcarbamoyl)azetidin-3-yl)methyl (R)-(5-(5-ethyl-1,2,4-oxadiazol-3-yl)-2,3-dihydro-1H-inden-1-yl)carbamate]",4.7,21.1
"Cn1nccc1C(=O)N[C@@H]1CCc2cc(-c3nccs3)ccc21 [Compound 370, (R)-1-methyl-N-(5-(thiazol-2-yl)-2,3-dihydro-1H-inden-1-yl)-1H-pyrazole-5-carboxamide]",3.8,19.1
"Cc1cccc(-c2ccc3c(c2)CC[C@H]3NC(=O)c2ccnn2C)c1 [Compound 373, (R)-1-methyl-N-(5-(m-tolyl)-2,3-dihydro-1H-inden-1-yl)-1H-pyrazole-5-carboxamide]",0.9,3.2
"Cc1ccc(-c2ccc3c(c2)CC[C@H]3NC(=O)c2ccnn2C)cc1 [Compound 374, (R)-1-methyl-N-(5-(p-tolyl)-2,3-dihydro-1H-inden-1-yl)-1H-pyrazole-5-carboxamide]",1.7,6.4
"Cc1cncc(-c2ccc3c(c2)CC[C@H]3NC(=O)c2ccnn2C)c1 [Compound 376, (R)-1-methyl-N-(5-(5-methylpyridin-3-yl)-2,3-dihydro-1H-inden-1-yl)-1H-pyrazole-5-carboxamide]",3.9,18.5
"Cc1cccc(-c2ccc3c(c2)CC[C@H]3NC(=O)c2ccnn2C)n1 [Compound 377, (R)-1-methyl-N-(5-(6-methylpyridin-2-yl)-2,3-dihydro-1H-inden-1-yl)-1H-pyrazole-5-carboxamide]",4.5,17.8
"Cc1ccnc(-c2ccc3c(c2)CC[C@H]3NC(=O)c2ccnn2C)c1 [Compound 380, (R)-1-methyl-N-(5-(4-methylpyridin-2-yl)-2,3-dihydro-1H-inden-1-yl)-1H-pyrazole-5-carboxamide]",2.2,10.3
"Cc1cncc(-c2ccc3c(c2)CC[C@H]3NC(=O)c2ccnn2C)n1 [Compound 382, (R)-1-methyl-N-(5-(6-methylpyrazin-2-yl)-2,3-dihydro-1H-inden-1-yl)-1H-pyrazole-5-carboxamide]",2.7,10.1
"Cc1cc(-c2ccc3c(c2)CC[C@H]3NC(=O)c2ccnn2C)cnn1 [Compound 384, (R)-1-methyl-N-(5-(6-methylpyridazin-4-yl)-2,3-dihydro-1H-inden-1-yl)-1H-pyrazole-5-carboxamide]",39.2,> 39.2
"CCc1nc(-c2ccc3c(c2)CC[C@H]3NC(=O)c2ocnc2C)no1 [Compound 386, (R)-N-(5-(5-ethyl-1,2,4-oxadiazol-3-yl)-2,3-dihydro-1H-inden-1-yl)-4-methyloxazole-5-carboxamide]",0.3,0.8
"Cc1ncoc1C(=O)N[C@@H]1CCc2cc(-c3noc(C4CC4)n3)ccc21 [Compound 390, (R)-N-(5-(5-cyclopropyl-1,2,4-oxadiazol-3-yl)-2,3-dihydro-1H-inden-1-yl)-4-methyloxazole-5-carboxamide]",0.4,1
"Cc1ncoc1C(=O)N[C@@H]1CCc2cc(-c3noc(C(C)C)n3)ccc21 [Compound 393, (R)-N-(5-(5-isopropyl-1,2,4-oxadiazol-3-yl)-2,3-dihydro-1H-inden-1-yl)-4-methyloxazole-5-carboxamide]",0.4,1.2
